# Reference: patent US5773236A, “Assay for glutathiane transferase using polyhaloaryl-substituted reporter molecules” (Molecule Probes, Inc., priority 1997, dated 1998)
# Structures can show the parent of a compound that is named as a salt.
# Assays:
# CRE BAG 2 cells [1] = experiment: Marker gene expression by flow cytometry, CRE BAG 2 (Example 62); assay type: cell-based; conditions: 0.2 mM dye, 37° C., 30 minutes
# Method: NIH-3T3 and CRE BAG2 cells are maintained as in Example 61. A 10 mM stock solution of (((3 -(2-pentafluorobenzoyl)amino)ethyl)amino)carbonyl)-umbelliferyl β-D-galactopyranoside (Compound 37; Example 37) is prepared in DMF. A 10 mM stock solution of 4-chloromethylcoumarin β-D-galactopyranoside (CMCG; Molecular Probes #D-2921) is prepared in a 1:1 mixture of DMSO and water. NIH-3T3 and CRE BAG2 cells are trypsinized, washed with phosphate buffered saline (PBS), pH 7.2 and resuspended in D-MEM with 10% BCS. To separate 1 mL cell suspensions are added the dye stock solutions to obtain final concentrations of 0.2 mM dye. Incubation is carried out at 37° C. for 30 minutes. Cells are centrifuged to form a pellet, the supernatant is discarded and the cells are washed twice with PBS, pH 7.2 and suspended in the same buffer. Cells are analyzed by flow cytometry using a Becton-Dickinson FACS Vantage flow cytometer. […] However, CRE BAG 2 cells stained with the Compound 37 show fluorescence that is greater than 25-fold that shown by autofluorescent control cells. For the CRE BAG 2 cells stained with CMCG, the fluorescence intensity is only 8-fold greater than that of the autofluorescent control cells.
# [2] = test system: Bovine pulmonary aorta endothelial cells (BPAEC); experiment: Retention of fluorescence in fixed cells (Example 66); assay type: cell-based; conditions: 3.7% formaldehyde 30 minutes, 0.2% Triton X-100 30 minutes
# [3] = test system: Bovine pulmonary aorta endothelial cells (BPAEC); experiment: Glutathione adduct formation and fate of substrate in cultured animal cells, HPLC (Example 66); assay type: cell-based
# Method: The solutions are mixed overnight with three volumes of ethyl acetate followed by centrifugation at 15,000×g for 30 min to separate the organic and aqueous layers. HPLC analysis using a Rainin HPLC equipped with a C18, 5 μm, 100 Å, 4.6×250 mm MICROSORB-MV reverse phase column. […] Products are detected by reading the absorbance at 500 nm.
# Bovine pulmonary aorta endothelial cells (BPAEC) are removed from flasks by trypsinization and washed into fresh complete growth medium to yield 10^6 cells/mL. […] Other aliquots of the cell suspension are loaded with the same substrates for 1 hour, rinsed into fresh complete medium, then incubated in the absence of substrate for an additional 3 hr at 37° C. to look for retention and efflux of fluorescent products. At the end of each incubation period the cells are removed by centrifugation and the supernate is retained. The cell pellets are resuspended in 1 mL of E-Pure water and subjected to three freeze-thaw cycles (-80° C. to 37° C.).
# CRE BAG 2 cells [4] = experiment: Peptidase substrates in live cells, fluorescence microscopy (Example 59); assay type: cell-based; conditions: 1 μM, 0.5 μM or 0.1 μM, 37° C., 30 minutes
# Method: CRE BAG 2 cells obtained from American Type Culture Collection Co., Rockville, Md. are used. They are grown in a humidified atmosphere of 5% CO2 in D-MEM supplemented with 10% calf serum, 50 μg/mL gentamycin, 300 μg/mL L-glutamine and 10 mM HEPES, pH 7.4. 1 mM stock solutions of Compound 13-Leu (Example 13) and Compound 13-Arg substrate are prepared in DMSO. CRE BAG 2 cells are trypsinized, washed with phosphate-buffered saline, pH 7.2 and resuspended in 1 mL of the same buffer. 1 μL, 0.5 μL or 0.1 μL of the stock reagents is added to 1 mL of the cell suspension to obtain a final concentration of 1 μM, 0.5 μM or 0.1 μM. Incubation is carried out at 37° C. for 30 minutes. Cells are centrifuged to form a pellet, the supernatant is discarded and the cells are washed with PBS, pH 7.2 and suspended in the same buffer. Cells are mounted on slides and observed by fluorescence microscopy using filters optimized for fluorescein.
# alkaline phosphatase = experiment: Detection of alkaline phosphatase on a membrane blot (Example 63); assay type: biochemical; conditions: nitrocellulose; for amount of enzyme detected, before washing: 35 minutes, 37° C., prior to washing the membranes
# Method: The reagents used are: 1) 5-(pentafluorobenzoylamino)fluorescein diphosphate, tetraammonium salt (Compound 47; Example 47), 10 mM in 0.1M Tris, pH 8.5; 2) fluorescein diphosphate (FDP; Molecular Probes, #F-2999), 10 mM in 0.1M Tris, pH 8.5; 3) BLOCKER Blotto in PBS (Pierce Chemical Company); 4) 0.2M glycine, pH 8.8; 5) 0.05M MgCl2, 6) 0.1M Tris, pH 8.5; 7) wash buffer: 20 mM Tris, 137 mM NaCl, 0.5% TWEEN 20, pH 7.5. Stock solutions of alkaline phosphatase are diluted in 0.1M Tris, pH 8.5 to obtain solutions with the following concentrations: 1 μg/μL, 0.5 μg/μL, 0.25 μg/μL, 0.1 μg/μL, 50 ng/μL, 10 ng/μL, 1 ng/μL and 0 ng/μL. 1 μL of each diluted solution is spotted on a nitrocellulose membrane (1"×1"), pore size 0.45 μM, and allowed to dry overnight at room temperature. Blocking is done by treating both nitrocellulose blots with 2 mL of supernatant liquid from the BLOCKER Blotto solution for 30 minutes at room temperature. The following mixture is prepared: 1.5 mL of 0.2M glycine, pH 8.8+0.4 mL of 0.05M MgCl2 +100 μL of 0.1M Tris, pH 8.5+10 μL of 10 mM substrate stock solution (either PFB-FDP or FDP). Blotto supernatant on the blots is replaced with the above mixture and incubation is carried out for 35 minutes at 37° C. A Polaroid image of the blots is obtained by illuminating with reflected UV light at 254 nm. Exposure time is 5-10 sec with an aperture setting of F=4.5 and filter #15 is used to block unwanted light. Both Compound 47 and FDP can detect ~50 ng of the enzyme prior to washing the membranes. The blots are washed twice for 5 minutes each time with 2 mL of wash buffer and an image is obtained using the same settings and exposure times as described above.
# [5] = test system: glutathione transferase (GST); experiment: Reactivity with glutathione catalyzed by glutathione transferase, TLC (Example 50); assay type: biochemical
# Method: The suitability of Compound 1 (Example 1) and 5-(pentachlorobenzoylamino)fluorescein (Compound 48) as substrates for glutathione transferase (GST) in the presence of excess glutathione (GSH) is tested in vitro as follows: 5 mM GSH, 0.5 mM substrate (Compound 1 or Compound 48) and 20 micrograms GST (Sigma #G-6511, 70 units/mg) are combined in 0.1M phosphate buffer, pH 8.0, for 1 hour at 37° C. The reaction is terminated by spotting approximately 3 μL on silica gel TLC plates. The plate is developed using 1-butanol: methanol: water (3:1:1). […] Analysis of the reaction mixture by HPLC as in Example 52 confirms that the reaction product of Compound 1 with GSH is identical to the authentic Compound 1-GSH adduct as prepared in Example 45 (Compound 45).
# NIH-3T3 cells = experiment: Hydrolysis of esterase substrates and product retention in live cells, flow cytometry (Example 65); assay type: cell-based
# Method: NIH-3T3 cells obtained from American Type Culture Collection Co., Rockville, Md. are used. They are grown in a humidified atmosphere of 5% CO2 in D-MEM supplemented with 10% bovine calf serum (BCS), 50 μg/mL gentamycin, 300 μg/mL L-glutamine and 10 mM HEPES, pH 7.4. Stock solutions of Compound 4 (Example 3), 10 mM in DMSO, and Compound 48 (Example 50), 5 mM in DMSO, are prepared. NIH-3T3 cells are trypsinized, washed with phosphate-buffered saline (PBS), pH 7.2 and resuspended in D-MEM with 10% BCS. To 1 mL of the cell suspension is added the dye stock solution to obtain a final dye concentration of 0.1 mM. Incubation is carried out at 37° C. for 30 minutes followed by incubation on ice for 30 minutes. Cells are centrifuged to form a pellet, the supernatant is discarded and the cells are washed twice with PBS, pH 7.2 and suspended in the same buffer. Cells are analyzed by flow cytometry using the Becton-Dickinson FACS Vantage flow cytometer. After analysis on the flow cytometer, cells are placed at 37° C. and analyzed by flow cytometry at frequent intervals over a period of 75 minutes. Cells stained with either of the dyes are at least 20-fold brighter than the autofluorescent control cells. Approximately 45% of Compound 4 and 35% of Compound 48 are still retained by the cells after 75 minutes of incubation at 37° C.
# [6] = 15 min, 5 μM substrate, continuous
# [7] = 1 hr, washed, then additional 3 hr at 37° C.
# [8] = 4 hrs, 5 μM substrate, continuous
smiles,measurement,setting,value
"O=c1cc(CCl)c2ccc(O[C@@H]3O[C@H](CO)[C@H](O)[C@H](O)[C@H]3O)cc2o1 [CMCG, 4-chloromethylcoumarin β-D-galactopyranoside, reference compound]",fluorescence relative to autofluorescent control cells,CRE BAG 2 cells [1],8 fold
"CC(=O)Oc1ccc2c(c1)Oc1cc(OC(C)=O)ccc1C21OC(=O)c2cc(NC(=O)c3ccccc3)ccc21 [Compound 5, 5-(benzoylamino)fluorescein diacetate]",fluorescence after fixation and permeabilization,[2],essentially nonfluorescent
same,GSH adduct formation in cells,"[3]; 5 μM substrate, 37° C., HPLC",does not
same,EXTRACELLULAR Free dye,[3]; [6],4829 relative fluorescence units
same,"EXTRACELLULAR Free dye, fraction of total fluorescence",[3]; [6],91.5%
same,INTRACELLULAR Free dye,[3]; [6],450 relative fluorescence units
same,"INTRACELLULAR Free dye, fraction of total fluorescence",[3]; [6],8.5%
same,EXTRACELLULAR Free dye,[3]; [7],469 relative fluorescence units
same,"EXTRACELLULAR Free dye, fraction of total fluorescence",[3]; [7],100%
same,EXTRACELLULAR Free dye,[3]; [8],8627 relative fluorescence units
same,"EXTRACELLULAR Free dye, fraction of total fluorescence",[3]; [8],99.1%
same,INTRACELLULAR Free dye,[3]; [8],78 relative fluorescence units
same,"INTRACELLULAR Free dye, fraction of total fluorescence",[3]; [8],0.9%
same,hydrolysis product detectable in washed cells,[3]; washed at one hour then incubated additional 3 hours,not detectable
"CC(C)C[C@H](N)C(=O)Nc1ccc2c(c1)Oc1cc(NC(=O)c3c(F)c(F)c(F)c(F)c3F)ccc1C21OC(=O)c2ccccc21 (stereo partly drawn) [Compound 13-Leu, Rhodamine 110, pentafluorobenzoyl amide, L-leucine amide, hydrochloride]","staining of cells, fluorescence microscopy",CRE BAG 2 cells [4],punctate green fluorescence associated with organelles
"O=C1OC2(c3ccc(OP(=O)(O)O)cc3Oc3cc(OP(=O)(O)O)ccc32)c2ccc(NC(=O)c3c(F)c(F)c(F)c(F)c3F)cc21 [Compound 47, 5-(pentafluorobenzoylamino)fluorescein diphosphate, tetraammonium salt]","amount of enzyme detected, before washing",alkaline phosphatase,~ 50 ng
same,"amount of enzyme detected, after washing","alkaline phosphatase; washed twice for 5 minutes, per spot",~ 50 ng
"O=C1OC2(c3ccc(O)cc3Oc3cc(O)ccc32)c2ccc(NC(=O)c3c(Cl)c(Cl)c(Cl)c(Cl)c3Cl)cc21 [Compound 48, 5-(pentachlorobenzoylamino)fluorescein]",adduct formation with glutathione in presence of GST,"[5]; 5 mM GSH, 0.5 mM substrate, 20 micrograms GST, pH 8.0, 1 hour, 37° C.",does not form a new adduct
same,reaction in control without GST,[5]; GST omitted,very low or no reaction
same,brightness versus autofluorescent control cells,"NIH-3T3 cells; 0.1 mM dye, 37° C., 30 minutes then on ice 30 minutes",at least 20 fold
same,dye retained by the cells,NIH-3T3 cells; after 75 minutes of incubation at 37° C.,~35%
"O=C1OC2(c3ccc(OP(=O)(O)O)cc3Oc3cc(OP(=O)(O)O)ccc32)c2ccccc21 [FDP, fluorescein diphosphate, reference compound]","amount of enzyme detected, before washing",alkaline phosphatase,~ 50 ng
same,detection of enzyme after washing,alkaline phosphatase; washed twice for 5 minutes,unable to detect the presence of any enzyme
